Each block holds one compound with its values, some of them ahead of it.
Assays:
[1] = test system: H1650 lung cancer cells; assay: Cell viability assay (MTT), H1650 lung cancer cells; format: cell-based; conditions: for GI50 / IC50: Homo sapiens, NCI-H1650; for IC50: H1650 lung cancer cells, 48 h drug treatment, MTT
Experimental: Cell Viability Assays (IC50 Determination)
Cell viability assays were performed according to Denizot, F. and R. Lang, Journal of Immunological Methods, 1986. 89(22): p. 271-277. H1650 lung cancer cells were plated at 150,000 cells per well in a 12 well plate. Twenty-four hours after plating, cells were treated as described with increasing concentrations of drug and control. Forty-eight hours after drug treatment, cells were treated with 100 μL of 3-(4,5-Dimethylthiazol-2-yl)-2,5-diphenyltetrazolium bromide (MTT) and incubated for 2 hours at 37 C. The MTT solution was subsequently replaced with 300 μL of n-propyl alcohol and re-aliquoted to a 96 well plate. Spectrophotometric analysis of each solution was performed using a 96 well plate reader at 600 nm in triplicate.

[2] = test system: A549luc cells; assay: Colony formation (clonogenic) assay, A549luc cells; format: cell-based; conditions: Homo sapiens, 168 h; A549 luc, harvested 7 days after initial treatment
Experimental: (§1) Protocol for clonogenic assay follows Sangodkar et al., J Clin Invest 2012; 122:2637-51.
(§2) Cell culture and staining: For both A549luc and H1650 cells, 500 cells are seeded into each well of a 6-well plate and allowed to attach for 24 hours before drug treatment. The following day, cells are treated with either the appropriate dose of drug or an equivalent volume of DMSO (two replicates were treated for each condition). For each condition, depleted media was replaced with fresh media containing the equivalent drug dose four days after initial treatment. Cells are harvested either 7 (A549 luc) or 8 (H1650) days after initial treatment. Briefly, medium is aspirated from each well and the cells are washed twice with ice-cold PBS, then plates are allowed to dry at room temperature for 4 hours. Cells are fixed for one hour in a fixing solution consisting of 10% methanol and 10% glacial acetic acid in distilled water, then stained overnight in 1% (w/v) crystal violet dissolved in methanol. The next day, staining solution is aspirated from the wells and plates are washed gently with distilled water to remove excess stain before colony counting. Colonies are imaged on a ChemiDoc XRS+ (Bio-Rad) and images are exported as 8-bit TIFF files. Colonies are counted using the Colony Counter plugin in ImageJ, with colony size defined as between 4 and 400 square pixels, and minimum circularity set at 0.6. Duplicate wells are averaged to obtain a single value for each condition. Results (number of colonies) for A549 luc cells and results (number of colonies) for H1650 cells may be analyzed separately.

[3] = test system: H1650 cells; assay: Colony formation (clonogenic) assay, H1650 cells; format: cell-based; conditions: Homo sapiens, NCI-H1650, 192 h; H1650, harvested 8 days after initial treatment
Experimental: as §1, §2

[4] = test system: lung cancer cell line H441; assay: In vivo cancer model: subcutaneous xenograft of lung cancer cell line H441, tumor volume; set-up: species or system mice; key to Mean Tumor Volume(T) / Median Tumor Volume(T): tumor volume in mm³; conditions: oral gavage, 30 days; for Mean Tumor Volume(T) / Median Tumor Volume(T): in mm³ (unit assumed)
Experimental: (§3) To assess the in vivo effects of the compounds, subcutaneous xenograft of lung cancer cell line H441 was generated. Cells (5×10^6) were injected into the right flank of 6- to 8-week-old male BALB/c nu/nu mice (Charles River, Wilmington, Mass.). Tumor volume was assessed twice a week by caliper measurement. Mice were randomized to treatment groups based on initial tumor volume average of 100 mm^3 per group. Mice were dosed by oral gavage with 15 mg/kg Example 1a QD, 15 mg/kg Example 1a BID, 50 mg/kg Example 1a QD, or 50 mg/kg Example 3a QD. Mouse tumors were measured twice a week for the duration of the study. Mouse body weights were recorded weekly and percentage of mice body weights during treatment was calculated as: weight at each time point/initial weight×100. […] Mice underwent treatment for 30 days and were sacrificed 2 hours after the last dose. Tumors were then excised and cut for both formalin-fixation and snap frozen in liquid nitrogen. […] No statistically significant toxicity was observed as judged from animal body weights of compound treated groups versus vehicle control group as shown in Table B below.

[5] = In vivo cancer model: body weights and signs of toxicity; set-up: species or system mice; conditions: for % T/C (Mean body weight) / % T/C (Median body weight) / Mean body weight / Median body weight: oral gavage; for signs of toxicity (mucous diarrhea, abdominal stiffness and weight loss): oral gavage 15 or 50 mg/kg, 30 days, BALB/c nu/nu mice
Experimental: as §3

[6] = 50 mg/kg QD, H441 xenograft mice

- GI50 ([1]; H1650 cells): 5 µM
- GI50 [2]: 7.5 µM
- GI50 [3]: 5 µM
SMILES: O=S(=O)(N[C@H]1CCC[C@@H](N2c3ccccc3Oc3ccccc32)[C@@H]1O)c1ccc(OC(F)(F)F)cc1 (single isomer, unassigned) [Example 1b]

- GI50 ([1]; H1650 cells): 10 µM
- GI50 [2]: 10 µM
- GI50 [3]: 7.5 µM
SMILES: O=S(=O)(N[C@H]1CCC[C@@H](n2c3ccccc3c3ccccc32)[C@@H]1O)c1ccc(OC(F)(F)F)cc1 (single isomer, unassigned) [Example 3b]

- GI50 ([1]; H1650 cells): 5 µM
SMILES: O=S(=O)(N[C@H]1CCC[C@@H](n2c3ccccc3c3cc(F)ccc32)[C@@H]1O)c1ccc(OC(F)(F)F)cc1 [Example 31a, N-((1S,2S,3R)-3-(3-fluoro-9H-carbazol-9-yl)-2-hydroxycyclohexyl)-4-(trifluoromethoxy)benzenesulfonamide]

Continued, compound first:

SMILES: O=S(=O)(N[C@@H]1CCCC(N2c3ccccc3Oc3ccccc32)[C@H]1O)c1ccc(OC(F)(F)F)cc1 (mixture of isomers) [Example 1, N-(2-hydroxy-3-(10H-phenoxazin-10-yl)cyclohexyl)-4-(trifluoromethoxy)benzenesulfonamide]
- GI50 ([1]; H1650 cells): 5 µM
- IC50 [1]: 5 µM
- GI50 [2]: 7.5 µM
- GI50 [3]: 5 µM

SMILES: O=S(=O)(N[C@@H]1CCCC(n2c3ccccc3c3ccccc32)[C@H]1O)c1ccc(OC(F)(F)F)cc1 (mixture of isomers) [Example 3, (1S,2S,3R)-rel-N-(3-(9H-carbazol-9-yl)-2-hydroxycyclohexyl)-4-(trifluoromethoxy)benzenesulfonamide]
- GI50 ([1]; H1650 cells): 10 µM
- IC50 [1]: 10 µM
- GI50 [2]: 7.5 µM
- GI50 [3]: 5 µM

SMILES: O=S(=O)(N[C@@H]1CCC[C@H](N2c3ccccc3Oc3ccccc32)[C@H]1O)c1ccc(OC(F)(F)F)cc1 (single isomer, unassigned) [Example 1a]
- GI50 ([1]; H1650 cells): 5 µM
- GI50 [2]: 7.5 µM
- GI50 [3]: 5 µM
- % T/C (Mean Tumor Volume) ([4]; 15 mg/kg BID): 26.08%
- % T/C (Median Tumor Volume) ([4]; 15 mg/kg BID): 27.37%
- Mean Tumor Volume(T) ([4]; 15 mg/kg BID): 315.40
- Median Tumor Volume(T) ([4]; 15 mg/kg BID): 274.43
- % T/C (Mean Tumor Volume) ([4]; 15 mg/kg QD): 61.43%
- % T/C (Median Tumor Volume) ([4]; 15 mg/kg QD): 60.69%
- Mean Tumor Volume(T) ([4]; 15 mg/kg QD): 742.80
- Median Tumor Volume(T) ([4]; 15 mg/kg QD): 608.58
- % T/C (Mean Tumor Volume) ([4]; 50 mg/kg QD): 36.50%
- % T/C (Median Tumor Volume) ([4]; 50 mg/kg QD): 33.78%
- Mean Tumor Volume(T) ([4]; 50 mg/kg QD, BALB/c nu/nu mice): 441.37
- Median Tumor Volume(T) ([4]; 50 mg/kg QD): 338.69
- % T/C (Mean body weight) ([5]; 15 mg/kg BID): 95.27%
- % T/C (Median body weight) ([5]; 15 mg/kg BID): 99.58%
- Mean body weight ([5]; 15 mg/kg BID): 33.20 g
- Median body weight ([5]; 15 mg/kg BID): 35.45 g
- % T/C (Mean body weight) ([5]; 15 mg/kg QD): 95.27%
- % T/C (Median body weight) ([5]; 15 mg/kg QD): 93.68%
- Mean body weight ([5]; 15 mg/kg QD): 33.20 g
- Median body weight ([5]; 15 mg/kg QD): 33.35 g
- % T/C (Mean body weight) ([5]; 50 mg/kg QD): 100.59%
- % T/C (Median body weight) ([5]; 50 mg/kg QD): 99.72%
- Median body weight ([5]; 50 mg/kg QD): 35.50 g
- Mean body weight [5, 6]: 35.06 g
- signs of toxicity (mucous diarrhea, abdominal stiffness and weight loss) [5]: no adverse signs were observed

SMILES: O=S(=O)(N[C@@H]1CCCC(n2c3ccc(Br)cc3c3cc(Br)ccc32)[C@H]1O)c1ccc(OC(F)(F)F)cc1 (mixture of isomers) [Example 24]
- GI50 ([1]; H1650 cells): 5 µM

SMILES: O=S(=O)(N[C@@H]1CCCC(N2c3ccccc3Oc3ccccc32)[C@H]1O)c1ccc(OC(F)(F)F)cc1Cl (mixture of isomers) [Example 17]
- GI50 ([1]; H1650 cells): 15 µM

SMILES: O=S(=O)(N[C@@H]1CCC[C@H](n2c3ccccc3c3ccccc32)[C@H]1O)c1ccc(OC(F)(F)F)cc1 (single isomer, unassigned) [Example 3a]
- GI50 ([1]; H1650 cells): 10 µM
- GI50 [2]: 7.5 µM
- GI50 [3]: 5 µM
- % T/C (Mean Tumor Volume) ([4]; 50 mg/kg QD): 32.13%
- % T/C (Median Tumor Volume) ([4]; 50 mg/kg QD): 37.62%
- Mean Tumor Volume(T) ([4]; 50 mg/kg QD, BALB/c nu/nu mice): 388.47
- Median Tumor Volume(T) ([4]; 50 mg/kg QD): 377.21
- % T/C (Mean body weight) ([5]; 50 mg/kg QD): 93.96%
- % T/C (Median body weight) ([5]; 50 mg/kg QD): 92.70%
- Median body weight ([5]; 50 mg/kg QD): 33.00 g
- Mean body weight [5, 6]: 32.74 g
- signs of toxicity (mucous diarrhea, abdominal stiffness and weight loss) [5]: no adverse signs were observed

SMILES: COC(=O)c1ccc2c(c1)c1ccccc1n2C1CCC[C@@H](NS(=O)(=O)c2ccc(OC(F)(F)F)cc2)[C@@H]1O (mixture of isomers) [Example 29]
- GI50 ([1]; H1650 cells): 15 µM

SMILES: O=S(=O)(N[C@@H]1CCCC(n2c3ccccc3c3ccccc32)[C@H]1O)c1ccccc1 (relative stereo) [Example 7, N-((1S,2S,3R)-rel-3-(9H-carbazol-9-yl)-2-hydroxycyclohexyl) benzenesulfonamide]
- GI50 ([1]; H1650 cells): 25 µM
- IC50 [1]: 25 µM

SMILES: O=S(=O)(N[C@@H]1CCCC(n2c3ccc(Br)cc3c3cc(Br)ccc32)[C@H]1O)c1ccc(Cl)cc1 (mixture of isomers) [Example 25]
- GI50 ([1]; H1650 cells): 15 µM

SMILES: O=S(=O)(N[C@@H]1CCCC(N2c3ccccc3Oc3ccccc32)[C@H]1O)c1ccc(SC(F)(F)F)cc1 (mixture of isomers) [Example 16]
- GI50 ([1]; H1650 cells): 10 µM

SMILES: O=S(=O)(N[C@@H]1CCCC(n2c3ccc(Cl)cc3c3cc(Cl)ccc32)[C@H]1O)c1ccc(Cl)cc1 (mixture of isomers) [Example 23]
- GI50 ([1]; H1650 cells): 5 µM

SMILES: N#Cc1ccc(S(=O)(=O)N[C@@H]2CCCC(n3c4ccccc4c4ccccc43)[C@H]2O)cc1 (relative stereo) [Example 5, N-((1S,2S,3R)-rel-3-(9H-carbazol-9-yl)-2-hydroxycyclohexyl)-4-cyanobenzenesulfonamide]
- GI50 ([1]; H1650 cells): 20 µM
- IC50 [1]: 20 µM

SMILES: N#Cc1ccc2c(c1)c1cc(C#N)ccc1n2C1CCC[C@@H](NS(=O)(=O)c2ccc(OC(F)(F)F)cc2)[C@@H]1O (mixture of isomers) [Example 26]
- H1650 GI50 ([1]; H1650 cells): Weak

From patent US9937186B2, “Sulfonamides derived from tricyclyl-2-aminocycloalkanols as anticancer agents” (ICAHN SCHOOL OF MEDICINE AT MOUNT SINAI, priority 2014, dated 2018)
